Experimental findings from ChEMBL document CHEMBL1201862, “PubChem BioAssay data set” (2004) are described below.

Among the test systems are DMS-114; Hs-578T; DLD-1; XF498; HOP-18; SNB-78; LXFL 529; BT-549; RXF 631.
Assay in all cases: NCI tumour cell line growth inhibition, 48 h

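Interpolation was linear, between the two tested concentrations surrounding the appropriate level; five concentrations were tested over 48 hours in 96-well plates. GI50 marks 50% less growth.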 Calls of active or inactive are those of the source. Rule as the data show it: active = GI50 up to about 1.1 µM and inactive = higher.

For `CN(C)CCCCN1CCc2c(n(C)c3ccccc23)C1=O`, the GI50 in the assay with DMS-114 is > 80.7 µM (inactive); with Hs-578T it was 41.8 µM (inactive); in the assay on DLD-1, 60.4 µM (inactive); with XF498, 20.7 µM (inactive); in the assay on HOP-18, > 100 µM (inactive); in the assay on SNB-78, > 100 µM (inactive). For the same compound, the GI50 was 19.4 µM (inactive) in the assay on LXFL 529 and > 37.8 µM (inactive) in the assay on BT-549.

As for `COc1cc([C@@H]2c3cc4c(cc3[C@@H](NCc3cccc(C#N)c3)C3COC(=O)[C@@H]32)OCO4)cc(OC)c1O` (stereo partly specified), the GI50 in the assay with DMS-114 is 1.87 µM (inactive); with RXF 631, 1.29 µM (inactive); with DLD-1 it was 1.7 µM (inactive); in the assay on HOP-18, > 100 µM (inactive); with LXFL 529, 5.9 µM (inactive).

Consider `Cc1cc(=O)n(-c2c(C)cccc2Cl)c(/C=C(\O)c2ccncc2)n1`, for which the GI50 in the assay with DMS-114, in the assay on RXF 631, in the assay on DLD-1, in the assay on HOP-18, with SNB-78 and in the assay on LXFL 529 was > 100 µM (inactive) each time.

For the compound `CC1=C(NC(=O)C(=O)NNC(=O)c2ccncc2)C(=O)c2ccccc2C1=O`, the GI50 in the assay on DMS-114 was 4.76 µM (inactive); in the assay on RXF 631 it was 40.4 µM (inactive); in the assay on DLD-1 it was 13.8 µM (inactive); in the assay with HOP-18, 10.5 µM (inactive); in the assay with SNB-78, 14.5 µM (inactive); in the assay on LXFL 529, 14.6 µM (inactive).

Consider `CCOC(=O)C(=O)Nc1ccccc1C`, for which the GI50 with DMS-114 was > 100 µM (inactive); in the assay with RXF 631 it was > 100 µM (inactive); in the assay with DLD-1 it was > 100 µM (inactive); with XF498, 24.9 µM (inactive); in the assay on SNB-78, > 100 µM (inactive); in the assay on LXFL 529 it was > 100 µM (inactive).

For the compound `CCCCOC(=O)/C(CC(=O)C=C(C)C)=N\NS(=O)(=O)c1ccc(C)cc1`, the GI50 in the assay on DMS-114 is 21.1 µM (inactive); with DLD-1, 65.5 µM (inactive); with XF498, > 100 µM (inactive); in the assay on HOP-18 it was > 100 µM (inactive); in the assay on SNB-78, > 100 µM (inactive); in the assay on LXFL 529, > 100 µM (inactive).

In the case of `O=C1Cc2ccccc2N1/N=C\c1ccc([N+](=O)[O-])cc1`, the GI50 in the assay on DMS-114, with DLD-1, with XF498, in the assay on HOP-18 and in the assay on SNB-78 was > 100 µM (inactive) in each case.

As for `CC(C)c1ccc(Cc2ccc(C(C)C)c(NC(=O)C(=O)Cc3cnc4ccccc4n3)c2C(C)C)c(C(C)C)c1NC(=O)C(=O)Cc1cnc2ccccc2n1`, the GI50 in the assay with DMS-114, in the assay on RXF 631, in the assay on DLD-1, with SNB-78 and with LXFL 529 was > 100 µM (inactive) in each case.

As for `CC(C)N(C(=O)C12C3C4C1C1C2C3C41C(=O)N(C(C)C)C(C)C)C(C)C` (stereo unspecified), the GI50 in the assay with DMS-114, in the assay on RXF 631, in the assay on DLD-1, with XF498, in the assay on SNB-78 and with LXFL 529 was > 50 µM (inactive) in each case.

Regarding `CC(=O)N1CC2Nc3ccccc3C2CC1CO` (stereo unspecified), the GI50 with DMS-114, in the assay on RXF 631, in the assay with DLD-1, in the assay with XF498, with SNB-78 and in the assay with LXFL 529 was > 100 µM (inactive) in each case.

As to `CC1(C)Cc2c(oc3ncnc(N)c23)CS1`, the GI50 with DMS-114, in the assay on RXF 631, with DLD-1, with XF498, in the assay with SNB-78 and with LXFL 529 was > 100 µM (inactive) each time.

As to `CCCNC(=O)C1C(=O)C(=O)N(CCC)C1=O` (stereo unspecified), the GI50 with DMS-114, in the assay with DLD-1, in the assay with XF498, in the assay with HOP-18, in the assay on SNB-78 and in the assay on LXFL 529 was > 100 µM (inactive) throughout.

`OCC(O)C(OC1OC(CO)C(O)C(O)C1O)c1nn(-c2ccc(Cl)cc2)c2nc3cc(Cl)ccc3nc12` (stereo unspecified): the GI50 in the assay with DMS-114, in the assay on RXF 631, with DLD-1, in the assay on XF498, in the assay on SNB-78 and in the assay on LXFL 529 was > 100 µM (inactive) in each case.

For the compound `COC(=O)NC12CC3CC(CC(F)(C3)C1)C2`, the GI50 with RXF 631, in the assay on DLD-1, in the assay with XF498 and in the assay with SNB-78 was > 100 µM (inactive) throughout.

Regarding `N#CC(C(=O)CCC(=O)Nc1cccc(C(F)(F)F)c1)c1ccc(Cl)cc1` (stereo unspecified), the GI50 in the assay with RXF 631, in the assay on DLD-1, with XF498, with HOP-18, in the assay on SNB-78 and in the assay on LXFL 529 was > 100 µM (inactive) throughout.

With `CCOC(=O)[C@]12C3C=CC(C3)C1C(=O)C1OC12` (stereo partly specified), the GI50 in the assay on DMS-114, in the assay with RXF 631, in the assay with DLD-1, with XF498, in the assay on HOP-18 and with SNB-78 was > 100 µM (inactive) each time. In addition, in the assay on LXFL 529, the GI50 was > 100 µM (inactive).

With `CC1=C2C(=CC(C)(CO)C2O)C(=O)C(C)(O)C12CC2` (stereo unspecified), the GI50 was 0.00205 µM (active) with DMS-114; 0.00274 µM (active) in the assay with RXF 631; 0.00895 µM (active) in the assay on DLD-1; 0.007 µM (active) with HOP-18; 0.00144 µM (active) in the assay on SNB-78; 0.00393 µM (active) in the assay with LXFL 529.

For the compound `Cc1cccc(N(CC(=O)O)S(=O)(=O)c2ccccc2)c1`, the GI50 with RXF 631, in the assay with DLD-1, in the assay on XF498, in the assay on HOP-18 and in the assay with LXFL 529 was > 100 µM (inactive) each time.

Turning to `O=c1c(O)c(-c2ccc(O)c(O)c2)oc2cc(O)ccc12` [FISETIN], the GI50 is 15.2 µM (inactive) in the assay on DMS-114; 20.2 µM (inactive) in the assay on DLD-1; 20.9 µM (inactive) with XF498; 21.2 µM (inactive) in the assay with HOP-18; 20.1 µM (inactive) in the assay on SNB-78; 15 µM (inactive) with LXFL 529.
